Measurements as given in EPA's ToxRefDB 2.

Legend:
rabbit [1] = details: Prenatal developmental toxicity study, new zealand white, Dermal, Topical, dose end: 18 GD
rat [2] = details: Prenatal developmental toxicity study, sprague dawley, Oral, Gavage/Intubation, dose end: 16 GD
rat [3] = details: Prenatal developmental toxicity study, sprague dawley, Oral, Gavage/Intubation, dose end: 16 GD; remark: listed apart in the source
rat [4] = details: Prenatal developmental toxicity study, wistar, Oral, Gavage/Intubation, dose end: 17 GD
guinea-pig = details: Subchronic dermal toxicity, hartley, Topical, dose end: 13 week, group: systemic
mouse [5] = details: Carcinogenicity, b6c3f1, Oral, Feed, dose end: 103 week, group: systemic
rat [6] = details: Carcinogenicity, fischer, Oral, Feed, dose end: 103 week, group: systemic
rat [7] = details: Subchronic oral toxicity in rodents, fischer, Feed, dose end: 13 week, group: systemic
mouse [8] = details: Subchronic oral toxicity in rodents, b6c3f1, Feed, dose end: 13 week, group: systemic
mouse [9] = details: Combined chronic toxicity/carcinogenicity; other; Oral; Feed; dose end: 99 week; group: systemic; systemic / hematology / erythrocyte (rbc) count differential / erythrocyte (rbc) + systemic / hematology / hematocrit (hct) / hematocrit (…
rat [10] = details: Subchronic oral toxicity in rodents, sprague dawley, Feed, dose end: 90 day, group: systemic, systemic / organ weight / liver / absolute + systemic / organ weight / liver / relative to body weight + systemic / clinical chemistry / …
mouse [11] = details: Carcinogenicity; cd1; Oral; Feed; dose end: 105 week; group: systemic; systemic / pathology microscopic / liver / adenocarcinoma + systemic / pathology microscopic / liver / adenoma + systemic / pathology …
rabbit [12] = details: Prenatal developmental toxicity study, new zealand white, Oral, Gavage/Intubation, dose end: 19 GD
rat [13] = details: Prenatal developmental toxicity study, sprague dawley, Oral, Gavage/Intubation, dose end: 15 GD
rat [14] = details: Combined chronic toxicity/carcinogenicity, fischer, Oral, Feed, dose end: 24 month, group: systemic
dog [15] = details: Subchronic oral toxicity in nonrodent, beagle, Capsule, dose end: 13 week, group: systemic, systemic / organ weight / thyroid gland / absolute + systemic / organ weight / thyroid gland / relative to body weight
dog [16] = details: Chronic toxicity, beagle, Oral, Capsule, dose end: 52 week, group: systemic
[17] = group: developmental, developmental / developmental malformation / bone / delayed ossification + developmental / developmental malformation / bone / knobby + …
[18] = group: maternal, reproductive / reproductive performance / resorptions / resorptions + systemic / hematology / erythrocyte (rbc) count differential / …
[19] = group: developmental, developmental / developmental malformation / aortic arch / [other] + developmental / developmental malformation / aortic arch / malformation…
[20] = group: developmental, developmental / developmental malformation / bone / ossification sites + developmental / developmental malformation / bone / supernumerary…
[21] = group: maternal, reproductive / reproductive performance / resorptions / resorptions + reproductive / offspring survival early / litter size / litter size
[22] = group: developmental, developmental / developmental malformation / bone / misaligned + developmental / developmental malformation / bone / ossification sites + …
[23] = group: maternal, reproductive / reproductive performance / resorptions / resorptions + systemic / in life observation / body weight / body weight + systemic…
[24] = group: developmental, systemic / in life observation / body weight / offspring (pup) weight gain + developmental / developmental malformation / aortic arch / …
[25] = group: maternal, reproductive / offspring survival early / live fetuses / live fetuses + reproductive / offspring survival early / litter size / litter size…
[26] = systemic / clinical chemistry / lactic acid dehydrogenase (ldh) / lactic acid dehydrogenase (ldh) + systemic / hematology / mean corpuscular…
[27] = systemic / pathology microscopic / liver / fatty change + systemic / pathology microscopic / liver / necrosis + systemic / urinalysis / …
[28] = systemic / pathology microscopic / bone marrow / myelofibrosis + systemic / pathology microscopic / mammary gland / cyst + systemic / …
[29] = systemic / pathology microscopic / liver / adenoma + systemic / pathology microscopic / pituitary gland / adenoma + systemic / pathology …
[30] = systemic / in life observation / body weight / body weight gain + systemic / pathology microscopic / eye / cataract + systemic / pathology …
[31] = systemic / in life observation / body weight / body weight + systemic / pathology microscopic / bone / osteopetrosis + systemic / pathology …
[32] = systemic / pathology microscopic / bone / osteopetrosis + systemic / in life observation / body weight / body weight
[33] = systemic / in life observation / mortality / mortality + systemic / pathology microscopic / adrenal gland / vacuolization cytoplasmic + …
[34] = systemic / pathology microscopic / uterus / hyperplasia
[35] = group: developmental, developmental / developmental malformation / limb / hyperflexion + systemic / in life observation / body weight / fetal weight + …
[36] = group: maternal, systemic / in life observation / body weight / body weight gain + systemic / in life observation / food consumption / food consumption
[37] = group: maternal, systemic / in life observation / body weight / body weight gain + systemic / in life observation / food consumption / food consumption + …
[38] = group: developmental, developmental / developmental malformation / bone / incomplete ossification + systemic / in life observation / body weight / fetal weight
[39] = group: maternal, systemic / in life observation / body weight / body weight + systemic / in life observation / body weight / body weight gain + reproductive…
[40] = systemic / organ weight / liver / absolute
[41] = systemic / organ weight / liver / absolute + systemic / pathology microscopic / liver / adenocarcinoma + systemic / pathology microscopic / …
[42] = systemic / organ weight / liver / absolute + systemic / organ weight / liver / relative to body weight
[43] = systemic / organ weight / liver / absolute + systemic / organ weight / liver / relative to body weight + systemic / clinical chemistry / …

For `COCCOCCO` [Diethylene glycol monomethyl ether], the LEL (rabbit [1]; [17]) was 250 mg/kg/day, the LOAEL (rabbit [1]; [17]) was > 750 mg/kg/day and the NEL (rabbit [1]; [17]) was 50 mg/kg/day. The NOAEL (rabbit [1]; [17]) was ≥ 750 mg/kg/day, the LEL (rabbit [1]; [18]) was 750 mg/kg/day and the LOAEL (rabbit [1]; [18]) was > 750 mg/kg/day. For the same compound, the NEL (rabbit [1]; [18]) was 250 mg/kg/day, the NOAEL (rabbit [1]; [18]) was ≥ 750 mg/kg/day and the LOAEL (rat [2]; [19]) was > 2160 mg/kg/day. For the same compound, the NOAEL (rat [2]; [19]) was ≥ 2160 mg/kg/day, the LEL (rat [2]; [20]) was 720 mg/kg/day and the NEL (rat [2]; [20]) was < 720 mg/kg/day. The NEL (rat [2]; group: maternal, reproductive / reproductive performance / resorptions / resorptions) was 720 mg/kg/day, the LEL (rat [2]; [21]) was 2160 mg/kg/day and the LOAEL (rat [2]; [21]) was > 2160 mg/kg/day. For the same compound, the NOAEL (rat [2]; [21]) was ≥ 2160 mg/kg/day, the LOAEL (rat [3]; [22]) was > 5180 mg/kg/day and the NEL (rat [3]; [22]) was 1000 mg/kg/day. The NOAEL (rat [3]; [22]) was ≥ 5180 mg/kg/day, the LEL (rat [3]; group: developmental, developmental / developmental malformation / bone / ossification sites) was 1500 mg/kg/day and the LOAEL (rat [3]; [23]) was > 5180 mg/kg/day. The NEL (rat [3]; [23]) was 2240 mg/kg/day, the NOAEL (rat [3]; [23]) was ≥ 5180 mg/kg/day and the LEL (rat [3]; group: maternal, systemic / in life observation / body weight / body weight + systemic / in life observation / food consumption / food consumption + …) was 3340 mg/kg/day. The NEL (rat [4]; group: developmental, systemic / in life observation / body weight / offspring (pup) weight gain) was 200 mg/kg/day, the LOAEL (rat [4]; [24]) was > 1800 mg/kg/day and the NOAEL (rat [4]; [24]) was ≥ 1800 mg/kg/day. For the same compound, the LEL (rat [4]; group: developmental, systemic / in life observation / body weight / offspring (pup) weight gain + developmental / developmental malformation / bone / …) was 600 mg/kg/day, the LEL (rat [4]; group: maternal, reproductive / offspring survival early / live fetuses / live fetuses) was 600 mg/kg/day and the NEL (rat [4]; group: maternal, reproductive / offspring survival early / live fetuses / live fetuses + reproductive / offspring survival early / litter size / litter size) was 200 mg/kg/day. For the same compound, the LOAEL (rat [4]; [25]) was > 1800 mg/kg/day, the NOAEL (rat [4]; [25]) was ≥ 1800 mg/kg/day and the LOAEL (guinea-pig; [26]) was > 1000 mg/kg/day. For the same compound, the NOAEL (guinea-pig; [26]) was ≥ 1000 mg/kg/day, the LEL (guinea-pig; [27]) was 40 mg/kg/day and the NEL (guinea-pig; [27]) was < 40 mg/kg/day.
In the case of `C[C@H]1CCCC(=O)CCC/C=C/c2cc(O)cc(O)c2C(=O)O1` [Zearalenone], the LEL (mouse [5]; [28]) was 7.5 mg/kg/day, the NEL (mouse [5]; [28]) was < 7.5 mg/kg/day and the LOAEL (mouse [5]; [29]) was > 15 mg/kg/day. For the same compound, the NOAEL (mouse [5]; [29]) was ≥ 15 mg/kg/day, the LOAEL (rat [6]; systemic / in life observation / body weight / body weight gain) was 2.5 mg/kg/day and the LEL (rat [6]; [30]) was 1.25 mg/kg/day. For the same compound, the NEL (rat [6]; [30]) was < 1.25 mg/kg/day, the NOAEL (rat [6]; [30]) was 1.25 mg/kg/day and the LOAEL (rat [7]; [31]) was > 150 mg/kg/day. The NOAEL (rat [7]; [31]) was ≥ 150 mg/kg/day, the LEL (rat [7]; [32]) was 1.5 mg/kg/day and the NEL (rat [7]; [32]) was < 1.5 mg/kg/day. For the same compound, the LOAEL (mouse [8]; [33]) was > 450 mg/kg/day, the NOAEL (mouse [8]; [33]) was ≥ 450 mg/kg/day and the LEL (mouse [8]; [34]) was 4.5 mg/kg/day. The NEL (mouse [8]; [34]) was < 4.5 mg/kg/day.
`CC(C)Oc1cc(-n2nc(C(C)(C)C)oc2=O)c(Cl)cc1Cl` [Oxadiazon] was tested, and the LEL (mouse [9]) was 0.315 mg/kg/day, the LOAEL (mouse [9]) was 10.6 mg/kg/day and the NEL (mouse [9]) was < 0.315 mg/kg/day. It also gave an NOAEL (mouse [9]) of 1.09 mg/kg/day, an LEL (rat [10]) of 100 mg/kg/day and an LOAEL (rat [10]) of 100 mg/kg/day. It also gave an NEL (rat [10]) of 25 mg/kg/day, an NOAEL (rat [10]) of 25 mg/kg/day and an LEL (mouse [11]) of 12 mg/kg/day. For the same compound, the LOAEL (mouse [11]) was 12 mg/kg/day, the NEL (mouse [11]) was < 12 mg/kg/day and the NOAEL (mouse [11]) was < 12 mg/kg/day. For the same compound, the LEL (rabbit [12]; [35]) was 180 mg/kg/day, the LOAEL (rabbit [12]; [35]) was 180 mg/kg/day and the NEL (rabbit [12]; [35]) was 60 mg/kg/day. For the same compound, the NOAEL (rabbit [12]; [35]) was 60 mg/kg/day, the LEL (rabbit [12]; [36]) was 60 mg/kg/day and the LOAEL (rabbit [12]; [36]) was 60 mg/kg/day. For the same compound, the NEL (rabbit [12]; [37]) was 20 mg/kg/day, the NOAEL (rabbit [12]; [37]) was 20 mg/kg/day and the LEL (rat [13]; [38]) was 40 mg/kg/day. It also gave an LOAEL (rat [13]; [38]) of 40 mg/kg/day, an NEL (rat [13]; [38]) of 12 mg/kg/day and an NOAEL (rat [13]; [38]) of 12 mg/kg/day. The LOAEL (rat [13]; group: maternal, systemic / in life observation / body weight / body weight + systemic / in life observation / body weight / body weight gain) was 40 mg/kg/day, the LEL (rat [13]; [39]) was 40 mg/kg/day and the NEL (rat [13]; [39]) was 12 mg/kg/day. It also gave an NOAEL (rat [13]; [39]) of 12 mg/kg/day, an LEL (rat [14]; [40]) of 4.8 mg/kg/day and an LOAEL (rat [14]; [40]) of 4.8 mg/kg/day. It also gave an NEL (rat [14]; [41]) of 0.5 mg/kg/day, an NOAEL (rat [14]; [41]) of 0.5 mg/kg/day and an LEL (dog [15]) of 25 mg/kg/day. The LOAEL (dog [15]) was 25 mg/kg/day, the NEL (dog [15]) was < 25 mg/kg/day and the NOAEL (dog [15]) was < 25 mg/kg/day. It also gave an LEL (dog [16]; [42]) of 20 mg/kg/day, an LOAEL (dog [16]; [42]) of 20 mg/kg/day and an NEL (dog [16]; [43]) of 5 mg/kg/day. The NOAEL (dog [16]; [43]) was 5 mg/kg/day.
